The record followed here is ChEMBL document CHEMBL5512647, “Cajaninstilbene acid derivatives conjugated with siderophores of 3-hydroxypyridin-4(1H)-ones as novel antibacterial agents against Gram-negative bacteria based on the Trojan horse strategy” (Eur J Med Chem, 2024).

Data set [1] concerns Klebsiella pneumoniae. Briefly: Antibacterial activity against Klebsiella pneumoniae ATCC 700603 measured after 18 to 20 hrs in presence of FeIII cultured under CAA medium by broth microdilution method. In kind it is functional. The note with it: time 18-20 hrs.
The subject of data set [2] is Pseudomonas aeruginosa. The data set is described as follows: Antibacterial activity against Pseudomonas aeruginosa 27853 measured after 18 to 20 hrs by broth microdilution method. In kind it is functional. The conditions noted are these: time 18-20 hrs.
The test system of data set [3] is Escherichia coli. The data set is described as follows: Antibacterial activity against Escherichia coli ATCC 25922 measured after 18 to 20 hrs by broth microdilution method. The note with it: time 18-20 hrs. In kind it is functional.
Data set [4] concerns Pseudomonas aeruginosa. Briefly: Antibacterial activity against Pseudomonas aeruginosa 1121 measured after 18 to 20 hrs by broth microdilution method. In kind it is functional. The note with it: time 18-20 hrs.
Data set [5] concerns Pseudomonas aeruginosa. The data set is described as follows: Antibacterial activity against Pseudomonas aeruginosa PAO1 measured after 18 to 20 hrs by broth microdilution method. In kind it is functional. The note with it: time 18-20 hrs.
Data set [6] has as its system Pseudomonas aeruginosa. Briefly: Antibacterial activity against Pseudomonas aeruginosa PAO1 measured after 18 to 20 hrs in presence of FeIII cultured under CAA medium by broth microdilution method. The note with it: time 18-20 hrs. The data set is classed as functional.
The subject of data set [7] is Pseudomonas aeruginosa. Briefly: Antibacterial activity against Pseudomonas aeruginosa FB measured after 18 to 20 hrs by broth microdilution method. The conditions noted are these: time 18-20 hrs. In kind it is functional.
In data set [8] the test system is Pseudomonas aeruginosa. Briefly: Antibacterial activity against Pseudomonas aeruginosa 27853 measured after 18 to 20 hrs in presence of FeIII cultured under CAA medium by broth microdilution method. In kind it is functional. The conditions noted are these: time 18-20 hrs.
The subject of data set [9] is Klebsiella pneumoniae. Briefly: Antibacterial activity against Klebsiella pneumoniae ATCC 700603 measured after 18 to 20 hrs by broth microdilution method. The data set is classed as functional. The note with it: time 18-20 hrs.
The subject of data set [10] is Escherichia coli. The data set is described as follows: Antibacterial activity against Escherichia coli ATCC 25922 measured after 18 to 20 hrs in presence of FeIII cultured under CAA medium by broth microdilution method. The data set is classed as functional. The conditions noted are these: time 18-20 hrs.
The test system of a further data set is Staphylococcus aureus. Briefly: Antibacterial activity against Staphylococcus aureus ATCC 25923 measured after 18 to 20 hrs by broth microdilution method. In kind it is functional. The conditions noted are these: time 18-20 hrs.
A short description of data set [11]: Metal chelating activity assessed as compound-Fe3+ complex formation incubated for 10 mins by CAS assay.
Data set [12] has as its system Cell membrane. Briefly: Induction of outer membrane permeabilization in Pseudomonas aeruginosa PAO1 assessed as increase in accumulation of NPN by measuring fluorescence intensity measured for 1 hr by NPN dye uptake assay. In kind it is cell membranes.
The nature of data set [13]: Cytotoxicity against African green monkey Vero cells at 100 uM measured after 24 hrs by MTT assay. In kind it is toxicity, cell-based. The note with it: chlorocebus sabaeus.
A short description of data set [14]: Cytotoxicity against African green monkey Vero cells at 50 uM measured after 24 hrs by MTT assay. The data set is classed as toxicity, cell-based. The note with it: chlorocebus sabaeus.
Data set [15] deals with Cell membrane. The data set is described as follows: Induction of cytoplasmic membrane permeabilization in Pseudomonas aeruginosa PAO1 assessed as disruption of cell membrane integrity by measuring increase in number of dead cells measured after 2 hrs by PI and SYTO9 staining based confocal laser scanning microscopy analysis. The data set is classed as cell membranes.
A further data set relates to Erythrocyte. Briefly: Hemolytic activity in rabbit red blood cells assessed as hemolysis at 12.5 to 50 uM measured after 2 hrs by microplate reader based analysis. The data set is classed as toxicity, cell-based, Oryctolagus cuniculus. The note with it: dose 12.5-50 µM.
The subject of data set [16] is Pseudomonas aeruginosa. The data set is described as follows: Antibacterial activity against Pseudomonas aeruginosa PAO1 infected in Caenorhabditis elegans assessed as improvement in survival rate at 12.5 to 50 uM measured upto 72 hrs. The data set is classed as functional, organism-based. The conditions noted are these: dose 12.5-50 µM.
For data set [17], the system named is Pseudomonas aeruginosa. The data set is described as follows: Antibacterial activity against Pseudomonas aeruginosa PAO1 delta-pvds measured after 18 to 20 hrs by broth microdilution method. In kind it is functional, organism-based. The note with it: time 18-20 hrs.
A short description of data set [18]: Acute toxicity in L4 stage of Caenorhabditis elegans at 12.5 to 50 uM. The note with it: dose 12.5-50 µM.
Data set [19] has as its system Pseudomonas aeruginosa. Briefly: Antibacterial activity against Pseudomonas aeruginosa PAO1 overexpressing fpvA mutant assessed as fold increase in MIC measured after 18 to 20 hrs by broth microdilution method. The conditions noted are these: time 18-20 hrs. In kind it is functional.
Data set [20] has as its system Pseudomonas aeruginosa. The data set is described as follows: Antibacterial activity against Pseudomonas aeruginosa PAO1 infected in Caenorhabditis elegans assessed as survival rate at 12.5 to 50 uM measured upto 72 hrs relative to control. In kind it is functional. The conditions noted are these: dose 12.5-50 µM.
Data set [21] has as its system Pseudomonas aeruginosa. Briefly: Antibacterial activity against Pseudomonas aeruginosa PAO1 infected in Caenorhabditis elegans assessed as improvement in survival rate at 50 uM measured after 72 hrs. In kind it is functional, organism-based.

SMILES strings stand for the structures. In brackets after ≈: the same amount, converted by molar mass. Activity calls are given as the source filed them. No cut-off for these calls is given here. Some results are limits rather than exact numbers.

For `CC1(C)S[C@@H]2[C@H](NC(=O)[C@H](N)c3ccccc3)C(=O)N2[C@H]1C(=O)O` [AMPICILLIN], the MIC with Klebsiella pneumoniae [1] is greater than 250 µM; against Pseudomonas aeruginosa [2] it was greater than 250 µM; against Escherichia coli [3], 1.95 µM (≈ 0.681 µg/mL); against Pseudomonas aeruginosa [4], greater than 250 µM; against Pseudomonas aeruginosa [5], 125 µM (≈ 43.7 µg/mL); in the data set with Pseudomonas aeruginosa [6] it was 62.5 µM. Besides, the MIC against Pseudomonas aeruginosa [7] was greater than 250 µM; in the data set on Pseudomonas aeruginosa [8], greater than 250 µM; with Klebsiella pneumoniae [9] it was greater than 250 µM; in the data set on Escherichia coli [10], 3.9 µM; against Staphylococcus aureus, 0.24 µM (≈ 0.0839 µg/mL).
In the case of `CC(C)=CCc1c(OCCCCCCCC(=O)NCc2cc(=O)c(O)cn2C)cc(/C=C/c2ccc(F)cc2)c(C(=O)O)c1O`, the outcome (in [11]; in the data set on Cell membrane [12]; in the data set on Pseudomonas aeruginosa [16]; in the data set with Pseudomonas aeruginosa [17]) was Active. For the same molecule, the MIC with Klebsiella pneumoniae [1] is greater than 250 µM; with Pseudomonas aeruginosa [2], 15.6 µM (≈ 9.68 µg/mL); against Escherichia coli [3], greater than 250 µM; in the data set with Pseudomonas aeruginosa [4] it was 15.6 µM (≈ 9.68 µg/mL); in the data set on Pseudomonas aeruginosa [5], 7.8 µM (≈ 4.84 µg/mL); with Pseudomonas aeruginosa [6], greater than 250 µM. Besides, the MIC was 31.2 µM (≈ 19.4 µg/mL) with Pseudomonas aeruginosa [7]; greater than 250 µM with Pseudomonas aeruginosa [8]; greater than 250 µM against Klebsiella pneumoniae [9]; greater than 250 µM in the data set on Escherichia coli [10]; greater than 250 µM with Staphylococcus aureus. For the same molecule, the Activity entry in [13] was “Toxic”; in data set [14], “Non-Toxic”; with Cell membrane [15] it was “Dose-Dependent Effect”; with Erythrocyte, “Non-Toxic”; in [18], “Non-Toxic”. For the same molecule, the “fold change (FC)” value with Pseudomonas aeruginosa [19] is 4. Also, the Survival in the data set on Pseudomonas aeruginosa [20] is 50%.
Turning to `CCn1cc(C(=O)O)c(=O)c2cc(F)c(N3CCNCC3)cc21` [NORFLOXACIN], the MIC in the data set with Klebsiella pneumoniae [1] was 31.2 µM; against Pseudomonas aeruginosa [2], 15.6 µM (≈ 4.98 µg/mL); against Escherichia coli [3], 0.49 µM (≈ 0.156 µg/mL); in the data set on Pseudomonas aeruginosa [4] it was 3.9 µM (≈ 1.25 µg/mL); in the data set on Pseudomonas aeruginosa [5] it was 1.95 µM (≈ 0.623 µg/mL); in the data set with Pseudomonas aeruginosa [6], 1.95 µM. Moreover, the MIC with Pseudomonas aeruginosa [7] amounted to 3.9 µM (≈ 1.25 µg/mL); in the data set with Pseudomonas aeruginosa [8], 15.6 µM; with Klebsiella pneumoniae [9] it was 31.2 µM (≈ 9.98 µg/mL); in the data set on Escherichia coli [10], 0.49 µM; against Staphylococcus aureus it was 7.8 µM (≈ 2.49 µg/mL).
As for `COc1cc(/C=C/c2ccc(F)cc2)c(C(=O)O)c(O)c1CC=C(C)C`, the outcome (with Pseudomonas aeruginosa [21]; in data set [11]) was inactive. The MIC in the data set on Klebsiella pneumoniae [1], in the data set with Pseudomonas aeruginosa [2], against Escherichia coli [3], with Pseudomonas aeruginosa [4], against Pseudomonas aeruginosa [5] and in the data set on Pseudomonas aeruginosa [6] was greater than 250 µM each time. Also, the minimal inhibitory concentration (MIC) against Pseudomonas aeruginosa [7] is greater than 250 µM; in the data set on Pseudomonas aeruginosa [8], greater than 250 µM; in the data set with Klebsiella pneumoniae [9], greater than 250 µM; in the data set with Escherichia coli [10], greater than 250 µM; with Staphylococcus aureus, 15.6 µM (≈ 5.56 µg/mL). Further, the Activity result in data set [14] was “Non-Toxic”.
Consider `CC(C)=CCc1c(OCCCCCCC(=O)NCc2cc(=O)c(O)cn2C)cc(/C=C/c2ccc(F)cc2)c(C(=O)O)c1O`, for which the outcome (in data set [11]; in the data set on Pseudomonas aeruginosa [16]; with Pseudomonas aeruginosa [17]) was Active. The MIC in the data set on Klebsiella pneumoniae [1] is greater than 250 µM; in the data set with Pseudomonas aeruginosa [2] it was 15.6 µM (≈ 9.46 µg/mL); in the data set on Escherichia coli [3] it was greater than 250 µM; in the data set with Pseudomonas aeruginosa [4], 15.6 µM (≈ 9.46 µg/mL); against Pseudomonas aeruginosa [5], 7.8 µM (≈ 4.73 µg/mL); in the data set with Pseudomonas aeruginosa [6] it was greater than 250 µM. The MIC was 31.2 µM (≈ 19 µg/mL) with Pseudomonas aeruginosa [7]; greater than 250 µM with Pseudomonas aeruginosa [8]; greater than 250 µM in the data set on Klebsiella pneumoniae [9]; greater than 250 µM in the data set with Escherichia coli [10]; greater than 250 µM with Staphylococcus aureus. Further, the Activity entry with Cell membrane [12] is “Dose-Dependent Effect”; in data set [13], “Toxic”; in data set [14] it was “Non-Toxic”; with Cell membrane [15] it was “Dose-Dependent Effect”; in the data set on Erythrocyte, “Non-Toxic”; in data set [18], “Non-Toxic”. The “fold change (FC)” value in the data set on Pseudomonas aeruginosa [19] is 4. Further, the Survival in the data set with Pseudomonas aeruginosa [20] was 50%.
